Experimental data as given in patent publication US10946019B2, “Nurr1:RXR activating compounds for simultaneous treatment of symptoms and pathology of Parkinson's disease” (priority 2015, dated 2021).

Legend:
[1] = test system: SHSY-5Y dopaminergic cells; assay: MPP+ induced cell death, MTT assay; format: cell-based, human
Method: MPP+, eradicates approximately 75% of the cells in 24 hours. […] Naive Neuro2A cells (FIG. 2A) or SH-SY5Y neuroblastoma cells FIG. 2B,C) were cultured in RPMI 1640, 10% fetal bovine serum at 37° C. Cells were pretreated with compound 3 for 12-24 h. Subsequent change of culture medium with addition of 0, 1, 2 and 4 mM MPP+ induced cell death. MTT assays determined the relative number of surviving cells FIG. 2D).
Such assays were performed, for instance, by adding compound 46 (12.5 μM) to human origin SHSY-5Y dopaminergic cells in which death was induced by the mitochondria complex I inhibitor MPP+ (1-methyl-4-phenylpyridinium), the active metabolite of MPTP (1-methyl-4-phenyl-1,2,3,6-tetrahydropyridine). […] Most of the MPP+-treated cells receiving vehicle died, while the few surviving cells remained attached to the plate but were rounded and had lost all projections. These morphological changes indicated impaired neuronal function. On the contrary, cells treated with compound 46 appeared healthy, flattened, well-attached, and their projections remained intact.
We examined the neuroprotective capability of Nurr1:RXRα heterodimer activation in SHSY-5Y cells where death was induced by either the oxidative stress related H2O2 or the mitochondria complex I inhibitor MPP+ (1-methyl-4-phenylpyridinium) (FIG. 72B). […] The protection conferred by compound 3 was Nurr1-dependent, since it was abrogated by knocking-down endogenous Nurr1 mRNA (FIGS. 1E and 72D). The neuroprotective effects of compound 3 extend to damage induced by the PD-associated mutation G2019S in the Leucine-Rich Repeat Kinase 2 (LRRK2) gene, the most common genetic defect associated with clinical PD (Tofaris et al. J. Neurosci. 26:3942-3950, 2006). Rat cortical neurons, co-transfected with CMV-GFP for identification, and CMVLRRK2-G2019S cDNAs show increased apoptosis as assessed by DAPI staining, compared to control neurons co-transfected with a LRRK2 wt cDNA.

[2] = test system: LRRK2-G2019S mutated DAergic neurons; assay: Neurite phenotypes of PD patient LRRK2-G2019S iPSc-derived DAergic neurons; format: cell-based, human; conditions: 12.5 μM for 14 days
Method: To ascertain the translational therapeutic potential of compound 3, we tested whether human midbrain-specific iPSc-derived DAergic neurons, as indicated by positive staining and qPCR for the neuronal markers MAP2, TH, FoxA2, Lmx1 and En1, can be protected from MPP+ toxicity. Compound 3 was able to double the number of surviving neurons after MPP+ exposure within 24 hours, compared to vehicle (FIGS. 72J-72L). The surviving control neurons had fewer and retreating projections, indicating compromised function (FIG. 72K) while the neurons that had received compound 3 had retained a complex network of projections and contacts (FIG. 72L). In addition, we tested compound 3 in iPSc-derived DAergic neurons from a PD patient carrying the LRRK2-G2019S mutation.

noradrenaline levels = assay: Striatal noradrenaline levels by HPLC-ECD; format: in vivo, mouse; conditions: 4 hours
Method: 4 hours after dosing animals were killed by cervical dislocation, brains were removed, and the striata were dissected on ice. The samples were immediately frozen and stored at −80° C. until use. The tissues were processed for the analysis by high performance liquid chromatography (HPLC) with an electrochemical detector (ECD) (Emmanouil et al., 2006). The dissected tissues were weighed, homogenized, and deproteinized in 0.2 N perchloric acid solution containing 7.9 mM Na2S2O5 and 1.3 mM Na2EDTA. The homogenate was centrifuged at 37,000×g for 30 minutes, and the supernatant was stored at −80° C. until assayed. A reverse-phase ion-pair chromatography was used in all analyses, and the mobile phase consisted of an acetonitrile-50 mM phosphate buffer at pH 3.0, containing 5-octylsulfate sodium salt (300 mg/L) as the ion-pair reagent and (20 mg/L) Na2EDTA. Reference standards were prepared in 0.2 N perchloric acid solution containing 7.9 mM Na2S2O5 and 1.3 mM Na2EDTA. Samples were quantified by comparison of the areas under the peaks with those of reference standards using HPLC software (Chromatography Station for Windows™, Watrex International Inc., San Francisco, Calif.) (FIG. 3D).

`C=CCc1c(N(C)c2ccc(C(=O)O)cc2)nc(-c2ccccc2)nc1C(F)(F)F` [Example 3, 4-((5-allyl-2-phenyl-6-(trifluoromethyl)pyrimidin-4-yl)(methyl)amino)benzoic acid] was tested, and the “cell survival against MPP+” value ([1]; 12.5 μM, varying concentrations of MPP+) was “significantly increased cell survival”, the “number of surviving cells after MPP+” value ([1]; pretreated 12-24 h, MPP+ 24 hours, MTT) was “approximately doubles” and the “increase of neurite branching” value [2] was 650%. For the same compound, the “increase of neurite length” value [2] was 83%, the “increase of neurite number” value [2] was 38% and the noradrenaline levels (noradrenaline levels; IP 10 mg/kg) was “remained unaffected”. The noradrenaline levels (noradrenaline levels; wild type C57/BL6 mice, single IP 20 mg/kg) was “did not increase”.
